Patent US7632829B2, “Diazepan derivatives” (Hoffmann-La Roche Inc., priority 2006, dated 2009)

Molecular target: T1, human chemokine receptor 2 isoform B (Homo sapiens, UniProt P41597)
T1 construct: host or cells: CHOK1-CCR2B-A5 (CHO-K1)
T1 sequence (P41597 1-360 isoform P41597-2): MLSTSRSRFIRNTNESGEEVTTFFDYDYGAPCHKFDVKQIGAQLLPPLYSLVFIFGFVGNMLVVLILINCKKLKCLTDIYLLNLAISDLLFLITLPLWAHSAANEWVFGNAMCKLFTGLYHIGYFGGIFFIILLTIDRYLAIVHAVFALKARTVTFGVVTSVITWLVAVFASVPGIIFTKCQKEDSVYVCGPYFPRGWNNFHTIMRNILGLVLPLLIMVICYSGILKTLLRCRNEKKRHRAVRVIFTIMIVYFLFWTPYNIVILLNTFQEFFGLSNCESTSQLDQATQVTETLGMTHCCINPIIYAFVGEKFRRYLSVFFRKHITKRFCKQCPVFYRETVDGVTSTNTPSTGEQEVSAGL
Experiment: Calcium mobilization assay (FLIPR, CHOK1-CCR2B-A5 cells, 20 nM MCP-1)
Format: cell-based
Conditions: Ca mobilisation assay, CCR2, antagonist activity vs 20 nM MCP-1
In short: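 FLIPR Fluo-4 calcium readout in CHO-K1 cells stably overexpressing human CCR2B; compounds first monitored 80 s for agonist activity, then after 20-30 min at 30 °C challenged with 20 nM MCP-1. Response is max minus basal fluorescence; antagonist value is concentration giving 50% inhibition of specific calcium increase.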

IC50 | Structure (SMILES)
15 nM | O=C(/C=C/c1ccc(F)c(Cl)c1)N1CCC(=O)N(CCCN2CCC3(CC3)C(O)C2)CC1 (centres unmarked) [Example 192]
644 nM | O=C(/C=C/c1ccc(F)c(Cl)c1)N1CCC(=O)N(CCCN2CCC[C@@H](O)C2)CC1 [Example 193]
494 nM | O=C1NC(=O)C2(CCN(CCCN3CCN(C(=O)/C=C/c4ccc(F)c(Cl)c4)CCC3=O)CC2)N1 [Example 194]
453 nM | O=C1NCC2(CCN(CCCN3CCN(C(=O)/C=C/c4ccc(F)c(Cl)c4)CCC3=O)CC2)O1 [Example 195]
864 nM | O=C(/C=C/c1ccc(F)c(Cl)c1)N1CCC(=O)N(CCCN2CCC(O)CC2)CC1 [Example 196]
739 nM | O=C1CC2(CCN(CCCN3CCN(C(=O)/C=C/c4ccc(F)c(Cl)c4)CCC3=O)CC2)CN1 [Example 198]
1340 nM | N#CC1CCN(CCCN2CCN(C(=O)/C=C/c3ccc(F)c(Cl)c3)CCC2=O)CC1 [Example 199]
656 nM | COC(=O)NC1CCN(CCCN2CCN(C(=O)/C=C/c3ccc(F)c(Cl)c3)CCC2=O)CC1 [Example 201]
437 nM | O=C(/C=C/c1ccc(F)c(Cl)c1)N1CCC(=O)N(CCCN2CCC(CO)CC2)CC1 [Example 212]
154 nM | O=C(/C=C/c1ccc(Cl)c(Cl)c1)N1CCC(=O)N(CCCN2CCC(CO)CC2)CC1 [Example 229]
105 nM | CC(C)N1CCN(CCCN2CCN(C(=O)/C=C/c3ccc(Cl)c(Cl)c3)CCC2=O)CC1 [Example 240]

Second part, the compound before the results:

Structure (SMILES) | IC50
O=C(/C=C/c1ccc(Cl)c(Cl)c1)N1CCC(=O)N(CCCCCN2CCCCC2)CC1 [Example 162, 1-[(E)-3-(3,4-Dichloro-phenyl)-acryloyl]-4-(5-piperidin-1-yl-pentyl)-[1,4]diazepan-5-one] | 319 nM
O=C(/C=C/c1ccc(Cl)c(Cl)c1)N1CCC(=O)N(C[C@@H](O)CN2CCCCC2)CC1 [Example 167, 1-[(E)-3-(3,4-Dichloro-phenyl)-acryloyl]-4-((S)-2-hydroxy-3-piperidin-1-yl-propyl)-[1,4]diazepan-5-one] | 28 nM
O=C(/C=C/c1ccc(Cl)c(Cl)c1)N1CCC(=O)N(CC[C@@H](O)CN2CCCCC2)CC1 [Example 172, 1-[(E)-3-(3,4-Dichloro-phenyl)-acryloyl]-4-((R)-3-hydroxy-4-piperidin-1-yl-butyl)-[1,4]diazepan-5-one] | 105 nM
O=C(/C=C/c1ccc(F)c(Cl)c1)N1CCC(=O)N(C[C@@H](O)CN2CCCCC2)CC1 [Example 175, 1-[(E)-3-(3-Chloro-4-fluoro-phenyl)-acryloyl]-4-((S)-2-hydroxy-3-piperidin-1-yl-propyl)-[1,4]diazepan-5-one] | 96 nM
O=C(/C=C/c1ccc(Cl)c(Cl)c1)N1CCC(=O)N(CC[C@H](O)CN2CCCCC2)CC1 [Example 178, 1-[(E)-3-(3,4-Dichloro-phenyl)-acryloyl]-4-((S)-3-hydroxy-4-piperidin-1-yl-butyl)-[1,4]diazepan-5-one] | 201 nM
C[C@@H]1CN(CCCN2CCCCC2)C(=O)CCN1C(=O)/C=C/c1ccc(Cl)c(Cl)c1 [Example 186, (R)-1-[(E)-3-(3,4-Dichloro-phenyl)-acryloyl]-2-methyl-4-(3-piperidin-1-yl-propyl)-[1,4]diazepan-5-one] | 38 nM
O=C(/C=C/c1cccc(Cl)c1)N1CCC(=O)N(CCCN2CCCCC2)CC1 [Example 188, 1-[(E)-3-(3-Chloro-phenyl)-acryloyl]-4-(3-piperidin-1-yl-propyl)-[1,4]diazepan-5-one] | 1340 nM
O=C(/C=C/c1ccc(F)c(Cl)c1)N1CCC(=O)N(CCCN2CCC3(CC3)C(O)C2)CC1 (stereo not drawn) [Example 189, 1-[(E)-3-(3-Chloro-4-fluoro-phenyl)-acryloyl]-4-[3-((-)-4-hydroxy-6-aza-spiro[2.5]oct-6-yl)-propyl]-[1,4]diazepan-5-one] | 8 nM
C[C@H]1CCN(CCCN2CCN(C(=O)/C=C/c3ccc(F)c(Cl)c3)CCC2=O)C[C@H]1O [Example 190, 1-[(E)-3-(3-Chloro-4-fluoro-phenyl)-acryloyl]-4-[3-((+, cis)-3-hydroxy-4-methyl-piperidin-1-yl)-propyl]-[1,4]diazepan-5-one] | 118 nM
